In the assay the target is T1, human TLR8 (Homo sapiens, UniProt Q9NR97).
T1 construct: host or cells: HEK-Blue hTLR8 (HEK293-derived reporter cells)
T1 sequence (Q9NR97 27-1041): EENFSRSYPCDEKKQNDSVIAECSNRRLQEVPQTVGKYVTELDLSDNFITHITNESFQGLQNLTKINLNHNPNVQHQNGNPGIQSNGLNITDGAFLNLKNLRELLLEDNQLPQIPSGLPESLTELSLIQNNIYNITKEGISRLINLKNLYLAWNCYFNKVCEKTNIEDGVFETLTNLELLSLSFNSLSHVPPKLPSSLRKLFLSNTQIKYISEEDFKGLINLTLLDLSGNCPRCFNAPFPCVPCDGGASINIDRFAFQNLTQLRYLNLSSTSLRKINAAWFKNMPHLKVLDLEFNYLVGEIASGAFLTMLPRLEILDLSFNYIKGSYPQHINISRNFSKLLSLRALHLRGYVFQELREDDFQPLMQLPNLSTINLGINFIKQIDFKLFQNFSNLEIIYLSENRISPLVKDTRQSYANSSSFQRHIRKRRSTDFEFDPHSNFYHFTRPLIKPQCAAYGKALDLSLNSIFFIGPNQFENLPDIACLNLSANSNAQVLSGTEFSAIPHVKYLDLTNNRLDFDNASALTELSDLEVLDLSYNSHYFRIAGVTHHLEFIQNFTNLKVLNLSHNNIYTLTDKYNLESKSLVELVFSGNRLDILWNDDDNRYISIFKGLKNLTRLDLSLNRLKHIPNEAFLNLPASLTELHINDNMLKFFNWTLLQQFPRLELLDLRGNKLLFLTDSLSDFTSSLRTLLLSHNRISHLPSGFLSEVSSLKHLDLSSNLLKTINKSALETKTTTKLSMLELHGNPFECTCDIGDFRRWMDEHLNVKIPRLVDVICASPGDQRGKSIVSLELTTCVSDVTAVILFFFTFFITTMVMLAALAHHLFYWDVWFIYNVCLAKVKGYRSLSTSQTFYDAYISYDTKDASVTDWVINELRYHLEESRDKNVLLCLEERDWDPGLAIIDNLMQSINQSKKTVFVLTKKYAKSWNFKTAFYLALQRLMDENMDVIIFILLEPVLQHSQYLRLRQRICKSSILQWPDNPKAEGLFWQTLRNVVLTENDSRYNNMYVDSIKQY
Nature of the assay: HEK-Blue hTLR8 SEAP reporter gene agonist assay. It is filed as cell-based. To be noted: HEK-Blue hTLR8 cells, 16 to 22 hours incubation. The method, then: HEK-Blue™ cells that stably express human TLR7 or TLR8 are used to evaluate the agonistic activity of the compounds on TLR7 or TLR8, which is determined by the induction of the expression of SEAP reporter gene under the control of minimum IFN-β promoter fusion to 5×NF-κB and AP-1 binding sites. The assay is conducted as below:
HEK-Blue™ hTLR7 (Invivogen, 80,000 cells per well) or HEK-Blue™ hTLR8 (Invivogen, 60,000 cells per well) were added to the 96-well cell culture plate, followed by adding of the test compound. The final concentration of the test compound in the medium ranged from […], and was incubated for 16 to 22 hours. According to the manufacturer's instructions, the HEK-Blue assay reagent Quanti-blue (Invivogen) was used to measure SEAP levels in cell media. Optical density at 650 nm (OD650) was measured by Neo2 multifunction plate reader (Bio-tek). The half effective concentration (EC50) was calculated using GraphPad Prism.
On the technique in general: In a reporter assay the amount or activity of a reporter protein is the signal.
Consider `COCCNc1nc(N)nc2ccn(Cc3ccc(CN4CCCC4)cc3)c(=O)c12` [Compound I-21, 2-amino-4-((2-methoxyethyl)amino)-6-(4-(pyrrolidin-1-ylmethyl)benzyl)pyrido[4,3-d]pyrimidin-5(6H)-one], for which it took 0.051 µM to reach a half-maximal effect (EC50).
Compound `CCCCNc1nc(N)nc2ccn(Cc3ccc(C(=O)N4CC5CC(C4)N5)cc3)c(=O)c12` [Compound I-19, 6-(4-(3,6-diazabicyclo[3.1.1]heptane-3-carbonyl)benzyl)-2-amino-4-(butylamino)pyri do[4,3-d]pyrimidin-5(6H)-one] gave a concentration giving a half-maximal response (EC50) of 0.055 µM.
Consider `CCCCNc1nc(N)nc2ccn(Cc3ccc(CN(CCO)CCO)cc3)c(=O)c12` [Compound I-50, 2-amino-6-(4-((bis(2-hydroxyethyl)amino)methyl)benzyl)-4-(butylamino)pyrido[4,3-d]pyrimidin-5(6H)-one], for which the EC50 was found to be 0.051 µM.
`CCCCNc1nc(N)nc2ccn(Cc3ccc(CN4CCCC4)cn3)c(=O)c12` [Compound I-128, 2-amino-4-(butylamino)-6-((5-(pyrrolidin-1-ylmethyl)pyridin-2-yl)methyl)pyrido[4,3-d]pyrimidin-5(6H)-one] registered an EC50 of 0.066 µM.
The compound `CCCCCCCCCCCCCCCC(=O)OC[C@H](CCC)Nc1nc(N)nc2ccn(Cc3ccc(CN4CCN(C)CC4)cc3OC)c(=O)c12` [Compound I-222] yielded an EC50 of 0.009 µM.
Consider `CCCC(C)Nc1nc(N)nc2ccn(Cc3ccc(CN4CCCC4)cc3)c(=O)c12` (centres unmarked) [Compound I-12, 2-amino-4-(pentan-2-ylamino)-6-(4-(pyrrolidin-1-ylmethyl)benzyl)pyrido[4,3-d]pyrimidin-5(6H)-one], for which a half-maximal effect (EC50) was put at 0.097 µM.
Turning to `CCC[C@@H](CO)Nc1nc(N)nc2ccn(Cc3ccc(CN(C)CCN)cc3OC)c(=O)c12` [Compound I-208], the EC50 turned out to be 0.07 µM.
In turn, `CCCCNc1nc(N)nc2ccn(Cc3cnc(CN4CCCC4)cn3)c(=O)c12` [Compound I-129, 2-amino-4-(butylamino)-6-((5-(pyrrolidin-1-ylmethyl)pyrazin-2-yl)methyl)pyrido[4,3-d]pyrimidin-5(6H)-one] came in with an EC50 of 0.077 µM.
Turning to `CCCCNc1nc(N)nc2ccn(Cc3ccc(CNCCO)cc3)c(=O)c12` [Compound I-34, 2-amino-4-(butylamino)-6-(4-(((2-hydroxyethyl)amino)methyl)benzyl)pyrido[4,3-d]pyrimidin-5(6H)-one], the EC50 was 0.045 µM.
The compound `CCC[C@@H](C)Nc1nc(N)nc2ccn(Cc3ccc(CN(CCC)CCO)cc3)c(=O)c12` [Compound I-140, (R)-2-amino-6-(4-(((2-hydroxyethyl)(propyl)amino)methyl)benzyl)-4-(pentan-2-ylamino)pyrido[4,3-d]pyrimidin-5(6H)-one] came in with an EC50 of 0.03 µM.
`CCCCCCCCCC(=O)OC[C@H](CCC)Nc1nc(N)nc2ccn(Cc3ccc(CN4CCN(C)CC4)cc3OC)c(=O)c12` [Compound I-221] displayed an EC50 of 0.03 µM.
`CCC[C@@H](CO)Nc1nc(N)nc2ccn(Cc3ccc(CN4CCN(CCN)CC4)cc3OC)c(=O)c12` [Compound I-207, (S)-2-amino-6-(4-((4-(2-aminoethyl)piperazin-1-yl)methyl)-2-methoxybenzyl)-4-((1-hydroxypentan-2-yl)amino)pyrido[4,3-d]pyrimidin-5(6H)-one] returned an EC50 of 0.044 µM.
Compound `CCC[C@@H](C)Nc1nc(N)nc2ccn(Cc3ccc(CN4CC5(COC5)C4)nc3OC)c(=O)c12` [Compound I-188, (R)-6-((6-((2-oxa-6-azaspiro[3.3]heptan-6-yl)methyl)-2-methoxypyridin-3-yl)methyl)-2-amino-4-(pentan-2-ylamino)pyrido[4,3-d]pyrimidin-5(6H)-one] yielded an EC50 of 0.029 µM.
Take `CCC[C@@H](CO)Nc1nc(N)nc2ccn(Cc3ccc(CN4CCNCC4)cc3OC)c(=O)c12` [Compound I-191, (S)-2-amino-4-((1-hydroxypentan-2-yl)amino)-6-(2-methoxy-4-(piperazin-1-ylmethyl)benzyl)pyrido[4,3-d]pyrimidin-5(6H)-one]: it took 0.018 µM to reach a half-maximal effect (EC50).

One may read the EC50 as the midpoint of the concentration-response curve.

Source of the values: US20250059183A1, “PYRIDINE[4,3-D]PYRIMIDINE COMPOUND AS TLR7/8 AGONIST” (SHANGHAI VISONPHARMA CO., LTD., priority 2021, published 2025).
